The source of these data is ChEMBL document CHEMBL1150298, “Sulfadiazine/hydroxypropyl-beta-cyclodextrin host-guest system: Characterization, phase-solubility and molecular modeling” (Bioorg Med Chem, 2008).

A short description of this data set: Aqueous solubility of compound at pH 7 by spectrophotometry. The following applies: aqueous solution.

The structures appear in SMILES notation. In brackets after ≈: the same amount, converted by molar mass.

By solubility is commonly meant how much of the substance goes into solution per volume. Low values mean little dissolved substance, high ones much dissolved substance. Compound `Nc1ccc(S(=O)(=O)Nc2ncccn2)cc1` [SULFADIAZINE] returned a solubility of 40 µg/mL (≈ 160 µM).
